System: 883617-216-R-J1-PDC tumor spheroids, viability
Experiment: Anticancer human tumor 883617-216-R-J1-PDC patient-derived bladder carcinoma cell line growth inhibition [PI3K]
Conditions: spheroids with HUVEC and MSC; for IC50: curve of first compound; for viability, T/C: stronger effect = lower value
How it was run: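 Viability of mixed-cell spheroids was determined after exposure to pairwise combinations, one partner being inavolisib, alpelisib, duvelisib or copanlisib. Highest tested concentration matched clinical Cmax where known and 10 microM where not, descending in half-log steps.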

[1] = second compound 0.0316 µM, first compound 0.0316 µM
[2] = second compound 0.0316 µM, first compound 0.1 µM
[3] = second compound 0.0316 µM, first compound 0.316 µM
[4] = second compound 0.0316 µM, first compound 1 µM
[5] = second compound 0.0316 µM, first compound 3.16 µM
[6] = second compound 0.0316 µM, first compound 10 µM
[7] = second compound 0.1 µM, first compound 0.0316 µM
[8] = second compound 0.1 µM, first compound 0.1 µM
[9] = second compound 0.1 µM, first compound 0.316 µM
[10] = second compound 0.1 µM, first compound 1 µM
[11] = second compound 0.1 µM, first compound 3.16 µM
[12] = second compound 0.1 µM, first compound 10 µM
[13] = second compound 0.316 µM, first compound 0.0316 µM
[14] = second compound 0.316 µM, first compound 0.1 µM
[15] = second compound 0.316 µM, first compound 0.316 µM
[16] = second compound 0.316 µM, first compound 1 µM
[17] = second compound 0.316 µM, first compound 3.16 µM
[18] = second compound 0.316 µM, first compound 10 µM
[19] = second compound 1 µM, first compound 0.0316 µM
[20] = second compound 1 µM, first compound 0.1 µM
[21] = second compound 1 µM, first compound 0.316 µM
[22] = second compound 1 µM, first compound 1 µM
[23] = second compound 1 µM, first compound 3.16 µM
[24] = second compound 1 µM, first compound 10 µM
[25] = second compound 3.16 µM, first compound 0.0316 µM
[26] = second compound 3.16 µM, first compound 0.1 µM
[27] = second compound 3.16 µM, first compound 0.316 µM
[28] = second compound 3.16 µM, first compound 1 µM
[29] = second compound 3.16 µM, first compound 3.16 µM
[30] = second compound 3.16 µM, first compound 10 µM
[31] = second compound 10 µM, first compound 0.0316 µM
[32] = second compound 10 µM, first compound 0.1 µM
[33] = second compound 10 µM, first compound 0.316 µM
[34] = second compound 10 µM, first compound 1 µM
[35] = second compound 10 µM, first compound 3.16 µM
[36] = second compound 10 µM, first compound 10 µM
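Also: spheroids exposed to agents for 7 days before the viability read.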

CC1(C)CCC(CN2CCN(c3ccc(C(=O)NS(=O)(=O)c4ccc(NCC5CCOCC5)c([N+](=O)[O-])c4)c(Oc4cnc5[nH]ccc5c4)c3)CC2)=C(c2ccc(Cl)cc2)C1 + CC(Nc1ncnc2nc[nH]c12)c1cc2cccc(Cl)c2c(=O)n1-c1ccccc1
IC50 (second compound 0.0316 µM): > 10 µM
IC50 (second compound 0.1 µM): > 10 µM
IC50 (second compound 0.316 µM): 8.99 µM
IC50 (second compound 1 µM): 7.69 µM
IC50 (second compound 3.16 µM): 6.4 µM
IC50 (second compound 10 µM): < 0.0316 µM
viability, T/C [1]: 93.1%
viability, T/C [2]: 87.2%
viability, T/C [3]: 93.8%
viability, T/C [4]: 87.7%
viability, T/C [5]: 87%
viability, T/C [6]: 50.8%
viability, T/C [7]: 97%
viability, T/C [8]: 84.3%
viability, T/C [9]: 91.7%
viability, T/C [10]: 97.5%
viability, T/C [11]: 90.8%
viability, T/C [12]: 52%
viability, T/C [13]: 94.7%
viability, T/C [14]: 96.2%
viability, T/C [15]: 92%
viability, T/C [16]: 88%
viability, T/C [17]: 76.6%
viability, T/C [18]: 46.9%
viability, T/C [19]: 85.2%
viability, T/C [20]: 85.8%
viability, T/C [21]: 88%
viability, T/C [22]: 79.3%
viability, T/C [23]: 70.1%
viability, T/C [24]: 44.2%
viability, T/C [25]: 62.6%
viability, T/C [26]: 76%
viability, T/C [27]: 62.6%
viability, T/C [28]: 65.7%
viability, T/C [29]: 59.2%
viability, T/C [30]: 44.1%
viability, T/C [31]: 49%
viability, T/C [32]: 52.6%
viability, T/C [33]: 46.3%
viability, T/C [34]: 40.3%
viability, T/C [35]: 46.1%
viability, T/C [36]: 28.3%

C[C@@H](NC(=O)c1ncnc(N)c1Cl)c1ncc(C(=O)Nc2cc(C(F)(F)F)c(Cl)cn2)s1 + CC(Nc1ncnc2nc[nH]c12)c1cc2cccc(Cl)c2c(=O)n1-c1ccccc1
IC50 (second compound 0.0316 µM): > 10 µM
IC50 (second compound 0.1 µM): > 10 µM
IC50 (second compound 0.316 µM): > 10 µM
IC50 (second compound 1 µM): > 10 µM
IC50 (second compound 3.16 µM): > 10 µM
IC50 (second compound 10 µM): < 0.0316 µM
viability, T/C [1]: 88.8%
viability, T/C [2]: 87.1%
viability, T/C [3]: 81.4%
viability, T/C [4]: 99.8%
viability, T/C [5]: 78.1%
viability, T/C [6]: 64.8%
viability, T/C [7]: 90%
viability, T/C [8]: 85.6%
viability, T/C [9]: 91.3%
viability, T/C [10]: 91.8%
viability, T/C [11]: 81.2%
viability, T/C [12]: 58.2%
viability, T/C [13]: 85.5%
viability, T/C [14]: 96.2%
viability, T/C [15]: 90.3%
viability, T/C [16]: 74%
viability, T/C [17]: 78.4%
viability, T/C [18]: 76.2%
viability, T/C [19]: 80.3%
viability, T/C [20]: 82.1%
viability, T/C [21]: 90.4%
viability, T/C [22]: 74.4%
viability, T/C [23]: 75.8%
viability, T/C [24]: 50.1%
viability, T/C [25]: 58.3%
viability, T/C [26]: 56.5%
viability, T/C [27]: 60%
viability, T/C [28]: 58.2%
viability, T/C [29]: 65.2%
viability, T/C [30]: 51.7%
viability, T/C [31]: 36.9%
viability, T/C [32]: 43.9%
viability, T/C [33]: 45.8%
viability, T/C [34]: 44.6%
viability, T/C [35]: 55.7%
viability, T/C [36]: 40.4%

— PubChem BioAssay AID1963973 (Molecular Pharmacology Branch, DTP, NCI, 2024)
